{
  "source": "patent US12037415B2",
  "about": "“Peptide and pharmaceutical composition for treating an eye disease comprising the same as an active pharmaceutical ingredient” (YuYu Pharma, Inc., priority 2017, dated 2024)",
  "key": {"[1]": {"tested_on": "cornea of rats with dry eye syndrome (ELGE)", "experiment": "Corneal permeability of fluorescent dye (corneal damage) in rats with ELGE-induced dry eye syndrome", "format": "in vivo, rat", "details": "0.3% solution, day 14 after the administration, study of YDE-001 to YDE-028 (Table 16)", "description": "In order to evaluate the eye protection effect on dry eye syndrome by YDE-001 to YDE-028 prepared in Working Example 1, a total of 320 Sprague-Dawley-type male rats (OrientBio, Seungnam, Korea) were adapted for 7 days. Thereafter, dry eye syndrome was induced in 264 test rats through extraorbital lacrimal gland excision (hereinafter, ELGE). 8 test rats without the eye abnormality were subjected to a sham operation as a control group.\nThe rats were systemically anesthetized by inhaling a mixed gas of 2% to 3% of isoflurane (Hana Pharm. Co., Hwasung, Korea), 70% of N2O, and 28.6% of O2 using a rodent anesthesia machine (Surgivet, Waukesha, Wis., USA) and a ventilator (Model 687, Harvard Apparatus, Cambridge, UK). Thereafter, the extraorbital lacrimal gland located in the subdermal area above the masseter muscle and under the optic nerve was excised through a transverse incision in a size of 10 mm on the anterior part of the left ear tragus. The skin was sutured by a general method. […] After 6 days following the ELGE operation, confirmation was performed through the Schirmer test by measuring the amount of tear secretion whether dry eye syndrome had been induced. Meanwhile, each rat of the control group with the sham operation was checked for the presence and location of the extraorbital lacrimal gland through a skin incision, and the skin was then sutured without the excision thereof (FIG. 134).\nIn addition, in order to evaluate the eye protection effect on dry eye syndrome by YDE-029 to YDE-043 prepared in Working Example 1, a total of 200 Sprague-Dawley-type male rats (OrientBio, Seungnam, Korea) were adapted for 7 days. Dry eye syndrome was induced in 165 test rats through the ELGE. 8 test rats without the eye abnormality were subjected to the sham operation as a control group. The ELGE was carried out as described above.\n(§1) For YDE-001 to YDE-028, YY-102 and the 28 YDE-series were each dissolved in physiological saline at a concentration of 3 mg/ml and administered at a dose of 5 μl/eye at 9:30 am and 3:30 pm daily for 14 days after 7 days from the ELGE operation for a total of 28 times. The DS solution was dissolved in physiological saline at a concentration of 30 mg/ml and administered at a dose of 5 μl/eye twice a day for 14 days after 7 days from the ELGE operation for a total of 28 times. For the sham control and the ELGE control groups, the same stimulation as the administration was applied. In order to prevent excessive eye dryness, the same volume of physiological saline was applied in the same manner in place of the test substances.\nas §1, with “Further, For YDE-029” for “For YDE-001”, “Further, For YDE-029 to YDE-043,” for “For YDE-001 to YDE-028,”, “YDE-029 to YDE-043, YY-102 and” for “YDE-001 to YDE-028, YY-102 and”, “and the 15 YDE-series were” for “and the 28 YDE-series were”, “the test substances (FIG. 137).” for “the test substances.”\nAfter YDE-001 to YDE-028 were each administered to the eyes […], the changes in the corneal permeability were checked.\nIn order to measure the corneal permeability, Zolethyl 50™ (Virbac Lab., Carros, France), an animal anesthetic, was intraperitoneally injected at a dose of 25 mg/kg. Thereafter, saline containing a 1% (v/v) fluorescent solution (fluorescein sodium salt, Tokyo Kasei Kogyo Co., Tokyo, Japan) was applied to the eyes at a dose of 5 μl/eye. The eyes thus treated were closed and fixed with a tape. After 1 hour, the remaining fluorescent solution was removed using a cotton swab (FIG. 142). […]"}, "[2]": {"experiment": "Stability in aqueous solution, amount of related substances under long-term storage conditions", "format": "physicochemical", "details": "glass vial, 25° C., 75% RH", "procedure": "In order to confirm the stability of each test substance in an aqueous solution, […] of each sample was dissolved in 1 ml of water to a concentration of 1 mg/ml, which was then charged to a glass vial, plugged with a rubber cap, sealed with an aluminum cap, and stored under long-term storage conditions (25° C., 75% RH). The stability of the test substance was evaluated by measuring the amount of related substances at the time of one week, two weeks, four weeks, eight weeks, and twelve weeks under the long-term storage conditions."}},
  "note": "Non-standard residues stand in square brackets, D forms with d. Residues, ends and D or L forms follow the SMILES beside them. ξ: configuration not given here. Hyp = O=C(O)[C@@H]1C[C@@H](O)CN1; Thr(3ξ) = CC(O)[C@H](N)C(=O)O",
  "data": [
    {"smiles": "CC(C)C[C@H](NC(=O)CNC(=O)[C@H](CCCCN)NC(=O)[C@H](CCC(N)=O)NC(=O)CNC(=O)[C@@H]1C[C@@H](O)CN1)C(=O)N[C@@H](C)C(=O)NCC(=O)N1CCC[C@H]1C(=O)N[C@@H](CCCCN)C(=O)O", "note": "[YDE-005, HyP-Gly-Gln-Lys-Gly-Leu-Ala-Gly-Pro-Lys] (H-[Hyp]GQKGLAGPK-OH)", "values": [
      {"measurement": "Permeability of fluorescent dye (%)", "setting": "[1]", "result": "37.98 ± 11.53", "unit": "%"},
      {"measurement": "Amount of related substances (%; after 12 weeks)", "setting": "[2]", "result": 2.97, "unit": "%"}
    ]},
    {"smiles": "CC(C)C[C@H](NC(=O)CNC(=O)[C@H](CO)NC(=O)[C@H](CCC(N)=O)NC(=O)CNC(=O)[C@@H]1C[C@@H](O)CN1)C(=O)N[C@@H](C)C(=O)NCC(=O)N1CCC[C@H]1C(=O)N[C@@H](CCCCN)C(=O)O", "note": "[YDE-006, HyP-Gly-Gln-Ser-Gly-Leu-Ala-Gly-Pro-Lys] (H-[Hyp]GQSGLAGPK-OH)", "values": [
      {"measurement": "Permeability of fluorescent dye (%)", "setting": "[1]", "result": "33.23 ± 13.26", "unit": "%"},
      {"measurement": "Amount of related substances (%; after 12 weeks)", "setting": "[2]", "result": 3.67, "unit": "%"}
    ]},
    {"smiles": "CC(C)C[C@H](NC(=O)CNC(=O)[C@@H](NC(=O)[C@H](CCC(N)=O)NC(=O)CNC(=O)[C@@H]1C[C@@H](O)CN1)C(C)O)C(=O)N[C@@H](C)C(=O)NCC(=O)N1CCC[C@H]1C(=O)N[C@@H](CCCCN)C(=O)O", "note": "(stereo partly drawn) [YDE-007, HyP-Gly-Gln-Thr-Gly-Leu-Ala-Gly-Pro-Lys] (H-[Hyp]GQ[Thr(3ξ)]GLAGPK-OH)", "values": [
      {"measurement": "Permeability of fluorescent dye (%)", "setting": "[1]", "result": "32.79 ± 10.77", "unit": "%"},
      {"measurement": "Amount of related substances (%; after 12 weeks)", "setting": "[2]", "result": 3.76, "unit": "%"}
    ]},
    {"smiles": "CC(C)C[C@H](NC(=O)CNC(=O)[C@H](C)NC(=O)[C@H](CCC(N)=O)NC(=O)CNC(=O)[C@@H]1C[C@@H](O)CN1)C(=O)N[C@@H](C)C(=O)NCC(=O)N1CCC[C@H]1C(=O)N[C@@H](CCCCN)C(=O)O", "note": "[YDE-008, HyP-Gly-Gln-Ala-Gly-Leu-Ala-Gly-Pro-Lys] (H-[Hyp]GQAGLAGPK-OH)", "values": [
      {"measurement": "Permeability of fluorescent dye (%)", "setting": "[1]", "result": "20.32 ± 11.87", "unit": "%"},
      {"measurement": "Amount of related substances (%; after 12 weeks)", "setting": "[2]", "result": 4.42, "unit": "%"}
    ]},
    {"smiles": "CC(C)C[C@H](NC(=O)CNC(=O)[C@H](CC(C)C)NC(=O)[C@H](CCC(N)=O)NC(=O)CNC(=O)[C@@H]1C[C@@H](O)CN1)C(=O)N[C@@H](C)C(=O)NCC(=O)N1CCC[C@H]1C(=O)N[C@@H](CCCCN)C(=O)O", "note": "[YDE-011, HyP-Gly-Gln-Leu-Gly-Leu-Ala-Gly-Pro-Lys] (H-[Hyp]GQLGLAGPK-OH)", "values": [
      {"measurement": "Permeability of fluorescent dye (%)", "setting": "[1]", "result": "18.11 ± 11.61", "unit": "%"},
      {"measurement": "Amount of related substances (%; after 12 weeks)", "setting": "[2]", "result": 3.83, "unit": "%"}
    ]},
    {"smiles": "CC(C)C[C@H](NC(=O)CNC(=O)[C@H](Cc1ccccc1)NC(=O)[C@H](CCC(N)=O)NC(=O)CNC(=O)[C@@H]1C[C@@H](O)CN1)C(=O)N[C@@H](C)C(=O)NCC(=O)N1CCC[C@H]1C(=O)N[C@@H](CCCCN)C(=O)O", "note": "[YDE-012, HyP-Gly-Gln-Phe-Gly-Leu-Ala-Gly-Pro-Lys] (H-[Hyp]GQFGLAGPK-OH)", "values": [
      {"measurement": "Permeability of fluorescent dye (%)", "setting": "[1]", "result": "31.01 ± 11.38", "unit": "%"},
      {"measurement": "Amount of related substances (%; after 12 weeks)", "setting": "[2]", "result": 3.57, "unit": "%"}
    ]},
    {"smiles": "CC(C)C[C@H](NC(=O)CNC(=O)[C@H](Cc1ccc(O)cc1)NC(=O)[C@H](CCC(N)=O)NC(=O)CNC(=O)[C@@H]1C[C@@H](O)CN1)C(=O)N[C@@H](C)C(=O)NCC(=O)N1CCC[C@H]1C(=O)N[C@@H](CCCCN)C(=O)O", "note": "[YDE-013, HyP-Gly-Gln-Tyr-Gly-Leu-Ala-Gly-Pro-Lys] (H-[Hyp]GQYGLAGPK-OH)", "values": [
      {"measurement": "Permeability of fluorescent dye (%)", "setting": "[1]", "result": "32.24 ± 7.84", "unit": "%"},
      {"measurement": "Amount of related substances (%; after 12 weeks)", "setting": "[2]", "result": 5.92, "unit": "%"}
    ]},
    {"smiles": "CC(C)C[C@H](NC(=O)CNC(=O)[C@H](Cc1c[nH]c2ccccc12)NC(=O)[C@H](CCC(N)=O)NC(=O)CNC(=O)[C@@H]1C[C@@H](O)CN1)C(=O)N[C@@H](C)C(=O)NCC(=O)N1CCC[C@H]1C(=O)N[C@@H](CCCCN)C(=O)O", "note": "[YDE-014, HyP-Gly-Gln-Trp-Gly-Leu-Ala-Gly-Pro-Lys] (H-[Hyp]GQWGLAGPK-OH)", "values": [
      {"measurement": "Permeability of fluorescent dye (%)", "setting": "[1]", "result": "31.15 ± 10.87", "unit": "%"},
      {"measurement": "Amount of related substances (%; after 12 weeks)", "setting": "[2]", "result": 6.72, "unit": "%"}
    ]},
    {"smiles": "CC(C)C[C@H](NC(=O)[C@@H](NC(=O)[C@H](CC(=O)O)NC(=O)[C@H](CCC(N)=O)NC(=O)CNC(=O)[C@@H]1C[C@@H](O)CN1)C(C)C)C(=O)N[C@@H](C)C(=O)NCC(=O)N1CCC[C@H]1C(=O)N[C@@H](CCCCN)C(=O)O", "note": "[YDE-015, HyP-Gly-Gln-Asp-Val-Leu-Ala-Gly-Pro-Lys] (H-[Hyp]GQDVLAGPK-OH)", "values": [
      {"measurement": "Permeability of fluorescent dye (%)", "setting": "[1]", "result": "15.95 ± 6.48", "unit": "%"},
      {"measurement": "Amount of related substances (%; after 12 weeks)", "setting": "[2]", "result": 13.05, "unit": "%"}
    ]}
  ]
}
